This is an account of results in publication PMC7761779 (Polymers, 2020).

Where two headings read alike, the source gives them in different places.

On the set-up of data set [1]: method as in PMID 30529662. The conditions noted are these: label = neat solvent of the NIA solution; finite dose; porcine skin; cited from earlier work.
Data set [2] can be described thus: Dynamic Vapor Sorption (DVS) study of NIA solutions. It counts as physicochemical. Conditions: label = vehicle of a 5% (w/v) NIA solution; 5 μL; 32 ± 1 °C, 50 ± 2% RH; n = 3.
Protocol: Nitrogen was used as the carrier gas (200 mL/min). To monitor mass differences, 15 mm quartz glass pans connected to a microbalance accurate to 0.00001 mg were employed. Then, 5 μL solutions of 5% NIA (w/v) were added to the pans, and data were recorded using a Universal Analysis 2000 (TA Instrument, New Castle, DE, USA). Temperature and relative humidity (RH) were maintained over the course of the studies at 32 ± 1 °C and 50 ± 2% RH, respectively.
Details of data set [3]: method as in PMID 3958901. The conditions noted are these: PEG 400/water mixtures; cadaver skin; infinite dose; cited from earlier work.
On the set-up of data set [4]: method as in Suwanpidokkul et al. The conditions noted are these: porcine skin, infinite dose, ref Suwanpidokkul et al., cited from earlier work.
Details of data set [5]: method as in PMID 30529662. The conditions noted are these: label = solvent; cited from earlier work.
Details of data set [6]: method as in PMID 30529662. The conditions noted are these: label = neat solvent of the NIA solution; porcine skin; cited from earlier work.

For the compound `CC(O)CO` (centres unmarked) [PG, propylene glycol], the “Cumulative permeation of NIA at 24 h” value in data set [1] is 46.0 μg/cm^2. Also, the “Percentage of applied weight recovered at 24 h (DVS)” value (from here on “Percentage”) in data set [2] worked out at 44.6 ± 0.02%.

For `O=C(O)CCc1nc(-c2ccccc2)c(-c2ccccc2)o1` [oxaprozin], the “Flux trend with increasing PEG 400 concentration in the formulation” value in data set [3] is “drop linearly”.

As for `N=C(N)N/N=C/c1c(Cl)cccc1Cl` [guanabenz], in data set [3], the “Flux trend with increasing PEG 400 concentration in the formulation” value was “drop linearly”.

Take `Cc1cn([C@H]2C[C@H](N=[N+]=[N-])[C@@H](CO)O2)c(=O)[nH]c1=O` [zidovudine]: the Flux was 15.52 ± 0.60 μg/cm^2/h in data set [4] (PEG 400/water vehicle), 9.96 ± 0.63 μg/cm^2/h in data set [4] (ethanol/water vehicle) and 10.35 ± 0.67 μg/cm^2/h in data set [4] (isopropanol/water vehicle).

In the case of `CCOCCOCCO` [TC, Transcutol® P], the “Cumulative permeation of NIA at 24 h” value in data set [1] is reported as 95.1 μg/cm^2. Further, the “Solubility of NIA” value in data set [5] is given as 8.0 ± 0.6%. Besides, the “Percentage” value in data set [2] amounted to 17.6 ± 0.5%. Further, the “Skin retention of NIA” value in data set [6] is reported as 16.4 ± 5.8%.

Take `CO[C@H]1CO[C@H]2[C@@H]1OC[C@H]2OC` [DMI, dimethyl isosorbide]: the “Cumulative permeation of NIA at 24 h” value in data set [1] is on record as 103.6 μg/cm^2. The “Percentage” value in data set [2] amounted to 76.3 ± 0.1%. For the same compound, the “Skin retention of NIA” value in data set [6] is on record as 16.7 ± 6.3%.
